One assay has as its target human full length DNMT1 (Homo sapiens (Human), UniProt P26358). Kind of assay: DNMT1 breaklight assay. The settings on record: repeated experimental runs, read-out: average IC50 against DNMT1. Type of assay: biochemical. Here is the method:
DNMT1 breaklight in vitro assays were conducted in a total volume of 50 μl in a standard 384 well format, using black non-binding surface microplates (Corning 3575). Five μl of human full length DNMT1 (produced internally), used at a final concentration of 40 nM, was added to 5 μl of substrate mixture containing final concentrations of 125 nM hemi methylated oligonucleotide (synthesized at ATD Bio; 5′-FAM-[…]5[…]5G5TAGAT-3′ where 5=methyl deoxycitidine) and 2 μM ultrapure SAM (Cisbio #62SAHZLD). Negative control wells used 5 μl of DNMT1 and 5 μl of oligonucleotide but 0 μM SAM. All reagents were made up in 1× assay buffer (20 mM Tris pH 6.8, 25 mM NaCl, 0.5 mM MgCl2, 0.01% Triton X100 and 1 mM DTT). The reaction was incubated at 26° C. for 45 min and then stopped with the addition of 40 μl detection reagent. Detection reagent, made up in 1× Gla assay buffer (20 mM Tris pH 8.0, 80 mM NaCl, 0.75 mM MgCl2, 0.01% Triton X100 and 1 mM DTT) has a final concentration of 100 μM SAH (Sigma #A9384) and 0.0008 units/μl Gla1 restriction endonuclease (Sibenzyme #E494). Following addition of the detection reagent the plate was incubated in the dark at room temperature for 5 hr. Fluorescence intensity was then measured on the PHERAstar FS (BMG Labtech) at Ex 485 nm and Em 520 nm, with a gain of 400 and an integration time of 100 ms.

A further assay deals with MV-4-11 AML cells. The assay is described as follows: MV-4-11 cell proliferation assay (CellTiter-Glo, 6 days). Type of assay: cell-based. The settings on record: Homo sapiens, MV4-11, 144 h; 6 days treatment; binning as pXC50; read-out: MV4-11 Anti-proliferative activity (EC50 category). Here is the method:
MV-4-11 Anti-Proliferative Activity (pEC50 Category)
Cell proliferation assay. Optimal cell seeding density was determined empirically for MV-4-11 AML cells by examining the growth of a wide range of seeding densities in a 384-well format to identify conditions that permitted maximal and continued proliferation for 6 days. MV-4-11 cells were plated in duplicate plates 24 hours before treatment with a 20-point two-fold dilution series of compound or 0.15% DMSO. Plates were incubated for 6 days at 37° C. in 5% CO2. Cells were then lysed with CellTiter-Glo (CTG) (Promega) and chemiluminescent signal was detected with an appropriate microplate reader. In addition, an untreated plate of cells was harvested at the time of compound addition (T0) to quantify the initial cell density. CTG values obtained after 6 days of treatment were expressed as a percent of the T0 value and plotted against compound concentration. Data were fit with a four parameter equation to generate a concentration response curve from which growth IC50 values were calculated.
On the technique in general: Cellular ATP, detected with luciferase, serves as a proxy for viable cell number.

For a further assay, the target named is human DNMT3a/3l (Homo sapiens (Human), UniProt Q9Y6K1). The assay is described as follows: DNMT3a/3l breaklight assay. Type of assay: biochemical.
human DNMT3a/3l, sequence (Q9Y6K1 whole entry, looked up): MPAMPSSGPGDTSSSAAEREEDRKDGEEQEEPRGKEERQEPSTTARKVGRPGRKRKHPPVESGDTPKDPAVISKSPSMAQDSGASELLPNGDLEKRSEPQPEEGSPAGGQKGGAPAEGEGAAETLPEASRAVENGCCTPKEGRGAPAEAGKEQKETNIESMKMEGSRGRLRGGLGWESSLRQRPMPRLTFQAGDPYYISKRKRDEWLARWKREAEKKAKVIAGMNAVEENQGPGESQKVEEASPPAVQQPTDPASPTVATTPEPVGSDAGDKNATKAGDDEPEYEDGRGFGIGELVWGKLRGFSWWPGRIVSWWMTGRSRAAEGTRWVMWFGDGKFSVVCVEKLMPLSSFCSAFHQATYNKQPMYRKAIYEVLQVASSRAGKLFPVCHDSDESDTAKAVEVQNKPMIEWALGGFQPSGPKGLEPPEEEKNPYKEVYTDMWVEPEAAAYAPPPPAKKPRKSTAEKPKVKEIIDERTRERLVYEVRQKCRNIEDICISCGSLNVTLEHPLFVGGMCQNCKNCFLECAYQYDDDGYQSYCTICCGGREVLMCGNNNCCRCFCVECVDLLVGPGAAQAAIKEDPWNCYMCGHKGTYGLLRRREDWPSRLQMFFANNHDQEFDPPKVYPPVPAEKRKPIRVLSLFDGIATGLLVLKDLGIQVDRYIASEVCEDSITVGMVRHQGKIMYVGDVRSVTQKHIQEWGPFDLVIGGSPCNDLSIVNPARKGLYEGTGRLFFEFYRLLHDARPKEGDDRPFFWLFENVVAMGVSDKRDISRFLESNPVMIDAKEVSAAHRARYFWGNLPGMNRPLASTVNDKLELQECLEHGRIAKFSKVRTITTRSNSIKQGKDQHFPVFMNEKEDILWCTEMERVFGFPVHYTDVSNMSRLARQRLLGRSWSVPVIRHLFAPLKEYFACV
human DNMT3a/3l, sequence (Q9UJW3 whole entry partner, looked up): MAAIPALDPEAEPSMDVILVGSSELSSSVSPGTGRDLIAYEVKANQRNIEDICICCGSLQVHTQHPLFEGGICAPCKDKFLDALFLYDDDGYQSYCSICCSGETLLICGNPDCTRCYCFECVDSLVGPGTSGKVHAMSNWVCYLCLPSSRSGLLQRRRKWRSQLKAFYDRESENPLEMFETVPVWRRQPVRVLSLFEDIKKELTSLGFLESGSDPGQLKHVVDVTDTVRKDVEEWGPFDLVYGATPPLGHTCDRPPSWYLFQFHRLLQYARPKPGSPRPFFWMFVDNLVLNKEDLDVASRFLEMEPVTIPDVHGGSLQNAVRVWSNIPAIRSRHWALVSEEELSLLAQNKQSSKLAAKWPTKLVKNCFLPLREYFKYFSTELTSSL
A further assay concerns the target DNMT3B (Homo sapiens (Human), UniProt Q9UBC3). The assay is described as follows: DNMT3B breaklight assay. Type of assay: biochemical.
Assay [1] deals with CpG sites in or near the promoter regions of HBG1 and HBG2 gene loci. Kind of assay: Bisulfite sequence analysis of HBG1/HBG2 DNA methylation in EPCs. Type of assay: cell-based, human. To be noted: EPCs treated for 3 days, average of nine sites. Here is the method: To assay the effect of Compound A on DNA methylation, EPCs treated for 3 days with Compound A were harvested and genomic DNA was bisulfite sequenced. Methylation of nine CpG sites in or near the promoter regions of HBG1 and HBG2 gene loci were selected and analyzed based on their previous characterization as sites of DNMT1 methylation during erythropoiesis (Mabaera et al. Blood: 110 (4). 2007).
Bisulfite Sequence Analysis
Genomic DNA was extracted in duplicate from Day 7 EPCs cultured at 37° C. with 5% CO2 and 5% O2 for 3 days in the presence of compound using a ZYMO gDNA kit (Zymo Research, Irvine, Calif.). The isolated DNA was bisulfite converted using a Zymo EZ DNA Methylation Kit. Primer sets for Bisulfite treated regions within the HBG1 and HBG2 were designed using ABI Methyl Primer Express Software. Analyzed regions included 9 previously described sites of DNMT1-dependent DNA methylation (Mabaera et al. Blood: 110 (4). 2007). DNA was further amplified on the fluidigm and QC'd using the Agilent bio-analyzer. MiSeq was performed using the IIlumina system and the output was Analyzed using ArrayStudio v8 and CLC-GWB v8.1.

Setting [2] is: read-out: DNMT3A Breaklight IC50.
The mark [3] stands for this setting: repeated experimental runs, read-out: average IC50, DNMT3A breaklight assay.
[4] abbreviates: read-out: DNMT3B Breaklight IC50.
Setting [5] is: repeated experimental runs, read-out: average IC50, DNMT3B breaklight assay.

Structures can show the parent of a compound that is named as a salt. Where two headings read alike, the source gives them in different places. A value given as a limit tells only on which side of the number the result lay.

human full length DNMT1, sequence (P26358 whole entry): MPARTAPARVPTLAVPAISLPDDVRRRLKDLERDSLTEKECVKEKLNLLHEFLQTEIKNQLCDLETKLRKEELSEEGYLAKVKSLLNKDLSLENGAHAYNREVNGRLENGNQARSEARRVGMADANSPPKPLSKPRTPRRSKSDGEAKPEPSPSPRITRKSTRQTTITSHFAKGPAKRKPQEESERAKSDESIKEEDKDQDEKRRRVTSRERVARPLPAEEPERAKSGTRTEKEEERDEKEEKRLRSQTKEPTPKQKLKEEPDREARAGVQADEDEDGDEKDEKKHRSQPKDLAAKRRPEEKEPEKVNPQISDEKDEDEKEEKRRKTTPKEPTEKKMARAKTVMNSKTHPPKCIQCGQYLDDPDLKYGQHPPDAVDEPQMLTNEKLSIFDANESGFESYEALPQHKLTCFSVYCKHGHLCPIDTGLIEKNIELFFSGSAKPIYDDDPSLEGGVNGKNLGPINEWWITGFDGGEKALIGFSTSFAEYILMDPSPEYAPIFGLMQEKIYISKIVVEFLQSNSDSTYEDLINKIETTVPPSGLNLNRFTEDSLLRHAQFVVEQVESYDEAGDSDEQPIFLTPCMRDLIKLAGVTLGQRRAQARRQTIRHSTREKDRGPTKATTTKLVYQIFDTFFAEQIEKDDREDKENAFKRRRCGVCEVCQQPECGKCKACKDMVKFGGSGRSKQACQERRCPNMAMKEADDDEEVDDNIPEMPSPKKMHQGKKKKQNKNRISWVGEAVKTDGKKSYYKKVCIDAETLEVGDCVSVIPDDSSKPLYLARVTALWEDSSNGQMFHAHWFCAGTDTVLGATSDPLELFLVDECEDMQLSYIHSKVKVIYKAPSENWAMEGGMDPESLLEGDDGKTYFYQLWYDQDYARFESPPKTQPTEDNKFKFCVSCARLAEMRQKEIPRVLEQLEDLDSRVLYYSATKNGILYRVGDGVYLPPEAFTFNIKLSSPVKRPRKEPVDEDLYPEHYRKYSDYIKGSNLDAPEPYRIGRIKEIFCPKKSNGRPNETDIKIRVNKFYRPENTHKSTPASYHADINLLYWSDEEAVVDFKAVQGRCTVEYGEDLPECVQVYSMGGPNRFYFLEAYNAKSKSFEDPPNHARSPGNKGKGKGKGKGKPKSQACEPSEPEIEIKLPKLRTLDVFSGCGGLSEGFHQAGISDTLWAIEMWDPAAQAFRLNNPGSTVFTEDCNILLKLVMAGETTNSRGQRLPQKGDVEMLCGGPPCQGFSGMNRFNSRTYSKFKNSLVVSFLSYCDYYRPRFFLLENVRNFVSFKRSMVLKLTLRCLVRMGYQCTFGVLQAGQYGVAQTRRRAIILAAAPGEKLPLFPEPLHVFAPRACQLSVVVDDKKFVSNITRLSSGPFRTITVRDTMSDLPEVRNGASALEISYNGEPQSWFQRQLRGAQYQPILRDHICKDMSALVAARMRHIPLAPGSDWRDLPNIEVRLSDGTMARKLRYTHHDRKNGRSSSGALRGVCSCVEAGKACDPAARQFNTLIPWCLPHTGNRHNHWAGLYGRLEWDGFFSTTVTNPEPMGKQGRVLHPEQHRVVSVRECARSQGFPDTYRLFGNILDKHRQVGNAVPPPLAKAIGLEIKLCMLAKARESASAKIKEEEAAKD

A word on the IC50: it is the concentration needed to halve the response being measured. In general, EC50 refers to the concentration giving half of the maximal effect. Consider `CCc1c(C#N)c(SC(C(N)=O)c2ccccc2)nc(N2CCC23CCNCC3)c1C#N` (stereo not shown) [Example 38, 2-((3,5-Dicyano-4-ethyl-6-(1,7-diazaspiro[3.5]nonan-1-yl)pyridin-2-yl)thio)-2-phenylacetamide trifluoroacetate], for which, at human full length DNMT1, the IC50 is above 0.75 µM. For the same compound, the EC50 in the assay on MV-4-11 AML cells lay in the range of 1 to 31.6 µM.

As for `N#Cc1c(SC(C(N)=O)c2ccncc2)nc(N2CCOCC2)c(C#N)c1C1CC1` (stereo not shown) [Example 9, 2-((3,5-dicyano-4-cyclopropyl-6-morpholinopyridin-2-yl)thio)-2-(pyridin-4-yl)acetamide], the IC50 on human full length DNMT1 is above 0.75 µM; at human DNMT3a/3l (setting [2]), above 500 µM; at human DNMT3a/3l (setting [3]), above 500 µM; on DNMT3B (setting [4]) it was above 500 µM; on DNMT3B (setting [5]), above 500 µM.

With `CC(Sc1nc(N2CCCNCC2)c(C#N)c(C2CC2)c1C#N)C(N)=O` (stereo not shown) [Example 46, 2-((3,5-dicyano-4-cyclopropyl-6-(1,4-diazepan-1-yl)pyridin-2-yl)thio)propanamide], the IC50 on human DNMT3a/3l (setting [2]) and on DNMT3B (setting [4]) was above 500 µM throughout. Further, in the assay with MV-4-11 AML cells, the EC50 was in the range of 1 to 31.6 µM.

Turning to `CCc1c(C#N)c(SC(C(N)=O)c2ccccc2)nc(N2CCN(CC)CC2)c1C#N` (stereo not shown) [Example 35, 2-((3,5-dicyano-4-ethyl-6-(4-ethylpiperazin-1-yl)pyridin-2-yl)thio)-2-phenylacetamide], the IC50 on human full length DNMT1 was above 0.75 µM; on human DNMT3a/3l (setting [2]), above 500 µM; at human DNMT3a/3l (setting [3]), above 500 µM; at DNMT3B (setting [4]) it was above 500 µM; on DNMT3B (setting [5]) it was above 500 µM.

Take `CN1CCN(CC2CCN(c3nc(SC(C(N)=O)c4ccccc4)c(C#N)c(C4CC4)c3C#N)CC2)CC1` (stereo not shown) [Example 125, 2-((3,5-Dicyano-4-cyclopropyl-6-(4-((4-methylpiperazin-1-yl)methyl)piperidin-1-yl)pyridin-2-yl)thio-2-phenylacetamide trifluoroacetate]: the results for the IC50 on human DNMT3a/3l (setting [2]) and at DNMT3B (setting [4]) were 322 µM and 75 µM, respectively. Further, in the assay on MV-4-11 AML cells, the EC50 was in the range of 0.316 to 1 µM.

`CCc1c(C#N)c(SC(C(N)=O)c2ccccc2)nc(N2CCNCC2)c1C#N` (stereo not shown) [Example 55, 2-((3,5-Dicyano-4-ethyl-6-(piperazin-1-yl)pyridin-2-yl)thio)-2-phenylacetamide]: the values for the IC50 on human DNMT3a/3l (setting [2]) and at DNMT3B (setting [4]) were above 500 µM and 272 µM, respectively. The EC50 with MV-4-11 AML cells fell in the range of 1 to 31.6 µM.

Consider `CN1CCN(C2CCN(c3nc(SC(C(N)=O)c4ccccc4)c(C#N)c(C4CC4)c3C#N)CC2)CC1` (stereo not shown) [Example 40, 2-((3,5-Dicyano-4-cyclopropyl-6-(4-(4-methylpiperazin-1-yl)piperidin-1-yl)pyridin-2-yl)thio)-2-phenylacetamide], for which the IC50 on human full length DNMT1 was at most 0.5 µM. In addition, the EC50 in the assay on MV-4-11 AML cells is 0.316 to 1 µM.

For `CCc1c(C#N)c(SC(C(N)=O)c2ccccc2)nc(N2CCOCC2)c1C#N` (stereo not shown) [Example 57, 2-((3,5-Dicyano-4-ethyl-6-morpholinopyridin-2-yl)thio)-2-phenylacetamide], the IC50 on human DNMT3a/3l (setting [2]) and at DNMT3B (setting [4]) was above 500 µM in each case. The EC50 in the assay with MV-4-11 AML cells fell in the range of 0.316 to 1 µM.

Turning to `CCc1c(C#N)c(SC(C(N)=O)c2ccccc2)nc(N2CCNC(=O)CC2)c1C#N` (stereo not shown) [Example 8, 2-{[3,5-dicyano-4-ethyl-6-(5-oxo-1,4-diazepan-1-yl)pyridin-2-yl]sulfanyl}-2-phenylacetamide], the IC50 on human full length DNMT1 was above 0.75 µM; on human DNMT3a/3l (setting [2]) it was above 500 µM; on human DNMT3a/3l (setting [3]) it was above 500 µM; at DNMT3B (setting [4]), above 500 µM; on DNMT3B (setting [5]) it was above 500 µM. Besides, in the assay on MV-4-11 AML cells, the EC50 lay in the range of 1 to 31.6 µM.

`CCc1c(C#N)c(SC(C(N)=O)c2ccccc2)nc(N2CCC(O)CC2)c1C#N` (stereo not shown) [Example 48, 2-((3,5-Dicyano-4-ethyl-6-(4-hydroxypiperidin-1-yl)pyridin-2-yl)thio)-2-phenylacetamide]: the IC50 on human full length DNMT1 was 0.89 µM; at human DNMT3a/3l (setting [2]) it was above 500 µM; on DNMT3B (setting [4]), above 500 µM.

As to `CCc1c(C#N)c(SC(C(N)=O)c2ccccc2)nc(N(C)C)c1C#N` (stereo not shown) [Compound A, 2-{[3,5-dicyano-6-(dimethylamino)-4-ethylpyridin-2-yl]sulfanyl}-2-phenylacetamide], the “decrease in methylation of nine CpG sites compared with vehicle treated cells” value in assay [1] is recorded as 65±5%.

As for `CCc1c(C#N)c(N[C@@H](C(N)=O)c2ccccc2)nc(N2CCCNCC2)c1C#N` [Example 41, (R)-2-((3,5-dicyano-6-(1,4-diazepan-1-yl)-4-ethylpyridin-2-yl)amino)-2-phenylacetamide], the IC50 on human full length DNMT1 was above 0.75 µM; on human DNMT3a/3l (setting [2]), above 500 µM; on human DNMT3a/3l (setting [3]), above 500 µM; on DNMT3B (setting [4]), above 500 µM; at DNMT3B (setting [5]), above 500 µM.

On to `N#Cc1c(SC(C(N)=O)c2ccccc2)nc(N2CCOC(CO)C2)c(C#N)c1C1CC1` (stereo not shown) [Example 63, 2-((3,5-Dicyano-4-cyclopropyl-6-(2-(hydroxymethyl)morpholino)pyridin-2-yl)thio)-2-phenylacetamide], for which the IC50 on human full length DNMT1 is above 0.75 µM. For the same compound, in the assay on MV-4-11 AML cells, the EC50 lay within 1 to 31.6 µM.

On to `CCc1c(C#N)c(SC(C(N)=O)c2ccccc2)nc(N2CCCN(C)CC2)c1C#N` (stereo not shown) [Example 56, 2-((3,5-Dicyano-4-ethyl-6-(4-methyl-1,4-diazepan-1-yl)pyridin-2-yl)thio)-2-phenylacetamide], for which the IC50 on human full length DNMT1 is at most 0.5 µM; at human DNMT3a/3l (setting [2]), above 500 µM; at human DNMT3a/3l (setting [3]), above 500 µM; on DNMT3B (setting [4]) it was above 500 µM; on DNMT3B (setting [5]), above 500 µM. Moreover, the EC50 with MV-4-11 AML cells fell in the range of 1 to 31.6 µM.

Values taken from patent US10975056B2 (GlaxoSmithKline Intellectual Property Development Limited, priority 2016, dated 2021).
